What follows are molecules tested against Histone deacetylase 2 (Homo sapiens, UniProt Q92769) (assay: Inhibition of full-length recombinant human C-terminal GST tagged HDAC2 expressed in Sf9 insect cells using aminoluciferin peptide substrate at 100 nM preincubated for 3 hrs followed by substrate addition and measured after 30 mins by HDAC-Glo I/II chemiluminescence assay). Conditions: time 3.5 hrs.
Chain of Histone deacetylase 2 (Q92769 whole entry): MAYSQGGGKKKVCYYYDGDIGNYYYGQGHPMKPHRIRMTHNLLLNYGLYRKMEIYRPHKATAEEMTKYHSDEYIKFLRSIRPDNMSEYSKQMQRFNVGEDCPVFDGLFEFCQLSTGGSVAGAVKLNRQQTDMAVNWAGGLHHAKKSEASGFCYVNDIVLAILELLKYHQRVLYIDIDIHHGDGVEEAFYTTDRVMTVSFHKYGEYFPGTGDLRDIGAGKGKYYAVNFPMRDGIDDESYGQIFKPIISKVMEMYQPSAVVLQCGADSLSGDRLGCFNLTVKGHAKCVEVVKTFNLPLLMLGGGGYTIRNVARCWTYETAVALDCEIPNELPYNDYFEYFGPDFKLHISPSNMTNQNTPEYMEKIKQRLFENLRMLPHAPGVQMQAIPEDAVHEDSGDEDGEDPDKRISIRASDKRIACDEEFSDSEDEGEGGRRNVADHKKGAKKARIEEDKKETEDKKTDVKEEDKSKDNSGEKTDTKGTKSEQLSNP

Compound | inhibition
Nc1ccc(-c2cccs2)cc1NC(=O)c1ccc(-c2cn(-c3ccc(I)cc3)nn2)cc1 | 0%
Nc1ccc(-c2cccs2)cc1NC(=O)c1ccc(-c2cn(CCc3ccccc3[N+](=O)[O-])nn2)s1 | 16%
Nc1ccc(-c2cccs2)cc1NC(=O)c1cn(CCC23CC4CC(CC(C4)C2)C3)nn1 | 2%
Nc1ccc(-c2ccsc2)cc1NC(=O)c1cn(/C=C/c2ccccc2)nn1 | 5%
Nc1ccc(-c2ccc(F)cc2)cc1NC(=O)CCc1cn(CCc2cccc(C(F)(F)F)c2)nn1 | 11%
Nc1ccc(-c2ccc(F)cc2)cc1NC(=O)c1cn(CS(=O)(=O)c2ccccc2)nn1 | 7%
Nc1ccc(-c2ccc(F)cc2)cc1NC(=O)c1cn(CCC2CCCC2)nn1 | 0%
Nc1ccc(-c2ccc(F)cc2)cc1NC(=O)c1cn(-c2ccccc2-c2ccccc2)nn1 | 19%
Nc1ccc(-c2cccs2)cc1NC(=O)c1ccc(-c2cn(CCc3ccc([N+](=O)[O-])cc3)nn2)s1 | 23%
Cc1ccc(-n2cc(CCC(=O)Nc3cc(-c4cccnc4)ccc3N)nn2)cc1C | 0%
Nc1ccc(-c2cccs2)cc1NC(=O)c1cn(-c2cccc3ccccc23)nn1 | 0%
Nc1ccc(-c2ccc(F)cc2)cc1NC(=O)c1cn(CCc2ccc(Cl)cc2)nn1 | 0%
Nc1ccc(-c2ccsc2)cc1NC(=O)c1cn(CCCc2ccccc2)nn1 | 5%
Nc1ccc(-c2cccs2)cc1NC(=O)c1cccc(-c2cn(CCCCCC(=O)O)nn2)c1 | 41%
Nc1ccc(-c2cccs2)cc1NC(=O)c1cccc(-c2cn(CCN3CCOCC3)nn2)c1 | 48%
Nc1ccc(-c2cccs2)cc1NC(=O)c1ccc(-c2cn(CCc3ccc(Cl)cc3)nn2)cc1 | 18%
Nc1ccc(-c2ccc(F)cc2)cc1NC(=O)CCc1cn(CCCCCc2ccccc2)nn1 | 5%
COc1ccc(Cn2cc(C(=O)Nc3cc(-c4cccs4)ccc3N)nn2)cc1 | 17%
Cc1ccccc1CCn1cc(CCC(=O)Nc2cc(-c3cccnc3)ccc2N)nn1 | 0%
COc1ccc(-n2cc(C(=O)Nc3cc(-c4cccs4)ccc3N)nn2)cc1 | 6%
Nc1ccc(-c2ccc(F)cc2)cc1NC(=O)c1cn(Cc2cccc(-c3ccccc3)c2)nn1 | 0%
Nc1ccc(-c2cccs2)cc1NC(=O)CCc1cn(/C=C/c2ccccc2)nn1 | 24%
Nc1ccc(-c2cccs2)cc1NC(=O)c1ccc(-c2cn(CCc3c[nH]c4ccccc34)nn2)cc1 | 19%
Nc1ccc(-c2cccs2)cc1NC(=O)c1cccc(-c2cn(CCc3ccccc3Cl)nn2)c1 | 0%

Compound | inhibition
Nc1ccc(-c2cccs2)cc1NC(=O)c1cn(Cc2ccc(-c3ccccc3)cc2)nn1 | 0%
Cc1csc(CCn2cc(CCC(=O)Nc3cc(-c4ccsc4)ccc3N)nn2)n1 | 39%
Nc1ccc(-c2ccc(F)cc2)cc1NC(=O)c1cn(CC(=O)Nc2ccc(F)cc2)nn1 | 32%
Nc1ccc(-c2cccs2)cc1NC(=O)c1ccc(-c2cn(Cc3ccc4ccccc4n3)nn2)s1 | 30%
Nc1ccc(-c2cccs2)cc1NC(=O)c1ccc(-c2cn(CCCCCCC(=O)O)nn2)cc1 | 0%
Nc1ccc(-c2cccs2)cc1NC(=O)c1cn(CCc2ccc(C(=O)O)cc2)nn1 | 16%
Nc1ccc(-c2ccc(F)cc2)cc1NC(=O)c1cn(CCc2ccc(F)cc2)nn1 | 0%
Nc1ccc(-c2cccs2)cc1NC(=O)c1ccc(-c2cn(-c3cccc4ccccc34)nn2)s1 | 0%
Nc1ccc(-c2ccsc2)cc1NC(=O)CCc1cn(CCc2cccc(F)c2)nn1 | 21%
Nc1ccc(-c2ccccc2)cc1NC(=O)c1cn(CCc2c[nH]c3ccccc23)nn1 | 0%
Nc1ccc(-c2ccccc2)cc1NC(=O)c1cn(CCc2ccc([N+](=O)[O-])cc2)nn1 | 0%
COc1ccc(-n2cc(-c3ccc(C(=O)Nc4cc(-c5cccs5)ccc4N)s3)nn2)cc1 | 5%
Cc1ccccc1CCn1cc(CCC(=O)Nc2cc(-c3cccs3)ccc2N)nn1 | 13%
Nc1ccc(-c2ccc(F)cc2)cc1NC(=O)c1cn(Cc2ccc(Oc3ccccc3)cc2)nn1 | 5%
Nc1ccc(-c2cccs2)cc1NC(=O)c1ccc(-c2cn(CCC3CCCC3)nn2)s1 | 0%
Nc1ccc(-c2ccc(F)cc2)cc1NC(=O)CCc1cn(Cc2ccc3ccccc3n2)nn1 | 26%
Nc1ccc(-c2cccs2)cc1NC(=O)c1ccc(-c2cn(CC(=O)c3ccccc3)nn2)cc1 | 61%
Nc1ccc(-c2ccccc2)cc1NC(=O)c1cn(Cc2ccc(Oc3ccccc3)cc2)nn1 | 0%
Nc1ccc(-c2cccnc2)cc1NC(=O)CCc1cn(CCc2ccccc2Cl)nn1 | 9%
Nc1ccc(-c2ccccc2)cc1NC(=O)c1cn(Cc2ccc(C(=O)O)cc2)nn1 | 27%
Nc1ccc(-c2ccccc2)cc1NC(=O)c1cn(CCC23CC4CC(CC(C4)C2)C3)nn1 | 0%
Nc1ccc(-c2ccccc2)cc1NC(=O)CCc1cn(CCc2ccc(C(F)(F)F)cc2)nn1 | 0%
Nc1ccc(-c2cccs2)cc1NC(=O)c1cccc(-c2cn(CCc3ccc(C(=O)O)cc3)nn2)c1 | 14%
Nc1ccc(-c2cccs2)cc1NC(=O)c1cccc(-c2cn(CCc3ccc([N+](=O)[O-])cc3)nn2)c1 | 1%

Compound | inhibition
Nc1ccc(-c2cccnc2)cc1NC(=O)CCc1cn(Cc2cccc(C(=O)O)c2)nn1 | 0%
COc1ccc(CCn2cc(C(=O)Nc3cc(-c4cccs4)ccc3N)nn2)cc1 | 21%
COc1ccc(CCn2cc(-c3cccc(C(=O)Nc4cc(-c5cccs5)ccc4N)c3)nn2)cc1 | 1%
Nc1ccc(-c2ccc(F)cc2)cc1NC(=O)c1cn(Cc2nc3ccccc3[nH]2)nn1 | 37%
Nc1ccc(-c2ccsc2)cc1NC(=O)CCc1cn(Cc2ccc(OC(F)(F)F)cc2)nn1 | 0%
Nc1ccc(-c2cccs2)cc1NC(=O)c1cccc(-c2cn(-c3cccc4ccccc34)nn2)c1 | 0%
Nc1ccc(-c2ccccc2)cc1NC(=O)CCc1cn(CCCCCCCC(=O)O)nn1 | 0%
Nc1ccc(-c2cccs2)cc1NC(=O)CCc1cn(CS(=O)(=O)c2ccccc2)nn1 | 15%
Nc1ccc(-c2cccs2)cc1NC(=O)c1cn(CCc2ccc(C(F)(F)F)cc2)nn1 | 9%
Nc1ccc(-c2ccc(F)cc2)cc1NC(=O)c1cn(CCc2c[nH]c3ccccc23)nn1 | 5%
Nc1ccc(-c2cccs2)cc1NC(=O)CCc1cn(CCC2CCCCC2)nn1 | 4%
Nc1ccc(-c2ccc(F)cc2)cc1NC(=O)CCc1cn(CCCCCCC(=O)O)nn1 | 6%
Nc1ccc(-c2ccccc2)cc1NC(=O)c1cn(CCc2cccc(C(F)(F)F)c2)nn1 | 0%
Nc1ccc(-c2cccnc2)cc1NC(=O)CCc1cn(-c2cccc3ccccc23)nn1 | 0%
Nc1ccc(-c2ccccc2)cc1NC(=O)CCc1cn(CCc2ccccc2[N+](=O)[O-])nn1 | 13%
Nc1ccc(-c2ccccc2)cc1NC(=O)c1cn(CCN2CCc3ccccc3C2)nn1 | 0%
COc1ccc(CCn2cc(C(=O)Nc3cc(-c4ccccc4)ccc3N)nn2)cc1 | 0%
Nc1ccc(-c2ccc(F)cc2)cc1NC(=O)CCc1cn(Cc2nc3ccccc3[nH]2)nn1 | 32%
Nc1ccc(-c2ccsc2)cc1NC(=O)CCc1cn(CS(=O)(=O)c2ccccc2)nn1 | 14%
Nc1ccc(-c2cccs2)cc1NC(=O)c1ccc(-c2cn(CCCc3ccccc3)nn2)s1 | 16%
Nc1ccc(-c2cccs2)cc1NC(=O)c1cccc(-c2cn(CCc3ccc(Cl)cc3)nn2)c1 | 0%
Nc1ccc(-c2cccs2)cc1NC(=O)c1cn(C[S+]([O-])c2ccccc2)nn1 (stereo not drawn) | 8%
Nc1ccc(-c2ccccc2)cc1NC(=O)CCc1cn(Cc2ccc(OC(F)(F)F)cc2)nn1 | 0%
Nc1ccc(-c2ccc(F)cc2)cc1NC(=O)CCc1cn(Cc2cccc(C(=O)O)c2)nn1 | 0%

Compound | inhibition
Nc1ccc(-c2ccc(F)cc2)cc1NC(=O)CCc1cn(C[S+]([O-])c2ccccc2)nn1 (stereo not drawn) | 17%
Cc1csc(CCn2cc(-c3ccc(C(=O)Nc4cc(-c5cccs5)ccc4N)cc3)nn2)n1 | 68%
CCc1ccc(Cn2cc(C(=O)Nc3cc(-c4cccs4)ccc3N)nn2)cc1 | 13%
Nc1ccc(-c2cccs2)cc1NC(=O)c1cccc(-c2cn(Cc3cc4ccccc4s3)nn2)c1 | 0%
Nc1ccc(-c2ccc(F)cc2)cc1NC(=O)c1cn(CC2CCCCC2)nn1 | 3%
Nc1ccc(-c2ccc(F)cc2)cc1NC(=O)CCc1cn(-c2ccc(O)cc2)nn1 | 3%
Nc1ccc(-c2cccs2)cc1NC(=O)c1ccc(-c2cn(CCc3cccc4ccccc34)nn2)cc1 | 0%
Nc1ccc(-c2ccc(F)cc2)cc1NC(=O)c1cn(Cc2ccc(OC(F)(F)F)cc2)nn1 | 0%
Nc1ccc(-c2cccs2)cc1NC(=O)c1cn(CCc2ccccc2Cl)nn1 | 3%
COc1ccccc1CCn1cc(CCC(=O)Nc2cc(-c3ccccc3)ccc2N)nn1 | 10%
Cc1cccc(CCn2cc(CCC(=O)Nc3cc(-c4cccnc4)ccc3N)nn2)c1 | 30%
Nc1ccc(-c2cccs2)cc1NC(=O)c1cccc(-c2cn(Cc3ccc(C(=O)O)cc3)nn2)c1 | 55%
Nc1ccc(-c2cccs2)cc1NC(=O)CCc1cn(CCc2ccccc2Cl)nn1 | 5%
Nc1ccc(-c2ccccc2)cc1NC(=O)CCc1cn(CCc2cccc(F)c2)nn1 | 1%
Nc1ccc(-c2ccc(F)cc2)cc1NC(=O)c1cn(Cc2ccc3ccccc3n2)nn1 | 27%
Nc1ccc(-c2cccnc2)cc1NC(=O)CCc1cn(-c2ccc(O)cc2)nn1 | 0%
Nc1ccc(-c2cccs2)cc1NC(=O)CCc1cn(CC2CCCCC2)nn1 | 0%
Cc1cccc(CCn2cc(-c3ccc(C(=O)Nc4cc(-c5cccs5)ccc4N)cc3)nn2)c1 | 26%
Nc1ccc(-c2ccsc2)cc1NC(=O)CCc1cn(CCCc2ccccc2)nn1 | 19%
Nc1ccc(-c2cccnc2)cc1NC(=O)CCc1cn(CC23CC4CC(CC(C4)C2)C3)nn1 | 2%
Nc1ccc(-c2ccccc2)cc1NC(=O)CCc1cn(CC2CCCCC2)nn1 | 0%

Source: ChEMBL document CHEMBL5390237, “Discovery of Selective Histone Deacetylase 1 and 2 Inhibitors: Screening of a Focused Library Constructed by Click Chemistry, Kinetic Binding Analysis, and Biological Evaluation” (J Med Chem, 2023)
